Values of other authors in paper PMC8583936, “Machine Learning Assisted Approach for Finding Novel High Activity Agonists of Human Ectopic Olfactory Receptors” (International Journal of Molecular Sciences, 2021).
Where two headings read alike, the source gives them in different places.

Tests used:
[1] = target: T1, OR2W1 (Homo sapiens, UniProt Q9Y3N9); conditions: cited from earlier work
T1 sequence (Q9Y3N9 1-320): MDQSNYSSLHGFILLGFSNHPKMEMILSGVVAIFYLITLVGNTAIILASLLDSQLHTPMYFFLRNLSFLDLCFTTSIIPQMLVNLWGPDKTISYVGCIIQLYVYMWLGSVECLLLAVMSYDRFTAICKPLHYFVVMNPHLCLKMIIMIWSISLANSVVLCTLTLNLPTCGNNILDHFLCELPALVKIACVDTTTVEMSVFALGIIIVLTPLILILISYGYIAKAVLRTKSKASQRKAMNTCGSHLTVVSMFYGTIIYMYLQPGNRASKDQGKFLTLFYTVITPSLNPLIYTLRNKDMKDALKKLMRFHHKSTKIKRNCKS

[2] = target: T2, OR1A1 (Homo sapiens, UniProt Q9P1Q5); conditions: cited from earlier work
T2 sequence (Q9P1Q5 1-309): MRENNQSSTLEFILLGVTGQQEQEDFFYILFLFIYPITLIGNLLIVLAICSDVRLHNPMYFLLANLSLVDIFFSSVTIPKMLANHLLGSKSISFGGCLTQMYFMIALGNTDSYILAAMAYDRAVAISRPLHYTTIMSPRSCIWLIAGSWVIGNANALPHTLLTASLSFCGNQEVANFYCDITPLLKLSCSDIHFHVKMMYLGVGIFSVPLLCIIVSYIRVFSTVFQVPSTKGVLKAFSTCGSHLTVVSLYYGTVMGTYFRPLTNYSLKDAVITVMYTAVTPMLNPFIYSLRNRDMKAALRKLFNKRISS

[3] = Table S2, ref Supplement references [2]-[12] as printed after each odorant name
[4] = Table S1, ref Supplement references [1]-[9] as printed after each odorant name

SMILES | Class (agonist / non-agonist / antagonist / conflicting info.) for OR2W1 [1, 3] | Class (agonist / non-agonist / conflicting info.) for OR1A1 [2, 4] | Class (agonist / non-agonist / antagonist / conflicting info.) for OR2W1 [1] | Class (agonist / non-agonist / conflicting info.) for OR1A1 [2]
C=CC(O)CCCCC (racemic) [(R/S)-octen-3-ol] | Agonist | Agonist | – | –
CCCCC1CCC(=O)O1 (racemic) [(R/S)-γ-Octalactone] | Agonist | Non-agonist | – | –
CCC(C(=O)O)c1ccccc1 (single isomer, unassigned; (+)) [(+)-2-Phenylbutyric acid] | Non-agonist | Non-agonist | – | –
CC1CC[C@H](C(C)C)[C@@H](O)C1 (single isomer, unassigned; (+)) [(+)-Menthol] | Conflicting info. | Non-agonist | – | –
CCC(C(=O)O)c1ccccc1 (single isomer, unassigned; (-)) [(-)-2-Phenylbutyric acid] | Non-agonist | Non-agonist | – | –
C=C(C)C1CC=C(C)C(=O)C1 (single isomer, unassigned; (-)) [(-)-Carvone] | Agonist | Agonist | – | –
CC1=CCC2CC1C2(C)C (single isomer, unassigned; (-)) [(-)-alpha-Pinene] | Non-agonist | Non-agonist | – | –
C=C1CCC2CC1C2(C)C (single isomer, unassigned; (-)) [(-)-beta-Pinene] | Non-agonist | Non-agonist | – | –
CCCCCCCC(OC)OC [1,1-dimethoxy-octane] | Agonist | Non-agonist | – | –
CC(S)CCS (centres unmarked) [1,3-butane dithiol] | Non-agonist | Non-agonist | – | –
CC12CCC(CC1)C(C)(C)O2 [1,8-cineole] | Non-agonist | Non-agonist | – | –
CCCCO [1-butanol] | Non-agonist | Non-agonist | – | –
CCCCCCCCCCO [1-decanol] | Agonist | Agonist | – | –
C=CC(=O)CCCCC [1-octen-3-one] | Non-agonist | Conflicting info. | – | –
CC1=CCC(C(C)(C)S)CC1 (centres unmarked) [1-p-Menthene-8-thiol] | Non-agonist | Non-agonist | – | –
CCCO [1-propanol] | Non-agonist | Non-agonist | – | –
CCCCCCCCCCCO [1-undecanol] | Non-agonist | Non-agonist | – | –
CC(=O)c1ccccc1N [2'-aminoacetophenone] | – | – | Non-agonist | Non-agonist
CCc1ncc(C)nc1CC [2,3-dietyl-5-methylpyrazine] | Non-agonist | Non-agonist | – | –
CCCC(=O)C(C)=O [2,3-hexanedione] | Agonist | Non-agonist | – | –
CCC(=O)C(C)=O [2,3-pentanedione] | – | – | Non-agonist | Non-agonist
CC1=NC(C)SC1C (centres unmarked) [2,4,5-trimethyl-2,5-dihydro-1,3-thiazole] | Antagonist | Non-agonist | – | –
Cc1ccc(O)c(C)c1 [2,4-dimethylphenol] | – | – | Non-agonist | Non-agonist
CCCC/C=C\C=C\C=O [2,4-nonadienal, (2e,4z)-] | Non-agonist | Non-agonist | – | –

SMILES | Class (agonist / non-agonist / antagonist / conflicting info.) for OR2W1 [1, 3] | Class (agonist / non-agonist / conflicting info.) for OR1A1 [2, 4] | Class (agonist / non-agonist / antagonist / conflicting info.) for OR2W1 [1] | Class (agonist / non-agonist / conflicting info.) for OR1A1 [2]
CCCCCC(=O)CC(C)=O [2,4-nonanedione] | Agonist | – | – | –
CCCCC(=O)CC(C)=O [2,4-octanedione] | Agonist | – | – | –
COc1cccc(OC)c1O [2,6-dimethoxyphenol] | Non-agonist | Non-agonist | – | –
Cc1cccc(C)c1O [2,6-dimethylphenol] | – | – | Non-agonist | Non-agonist
CC(=O)C1=NCCS1 [2-Acetyl-2-thiazoline] | Non-agonist | Non-agonist | – | –
CC(=O)c1ccco1 [2-Furyl methyl ketone] | Non-agonist | Non-agonist | – | –
CCc1ccc(O)c(OC)c1 [2-Methoxy-4-ethylphenol] | Non-agonist | Non-agonist | – | –
COc1ccc(C)cc1O [2-Methoxy-5-methylphenol] | Non-agonist | Non-agonist | – | –
Cc1occc1S [2-Methyl-3-furanthiol] | Non-agonist | Non-agonist | – | –
CCC(S)C(C)CO (centres unmarked) [2-Methyl-3-sulfanylpentan-1-ol] | Non-agonist | Non-agonist | – | –
CCC(C)COC(C)=O (centres unmarked) [2-Methylbutyl acetate] | Non-agonist | Non-agonist | – | –
O=C(O)Cc1ccccc1 [2-Phenylacetic acid] | – | – | Non-agonist | Non-agonist
CC(=O)OCCc1ccccc1 [2-Phenylethyl acetate] | Agonist | Agonist | – | –
CCC(=O)C(C)S (centres unmarked) [2-Sulfanylpentan-3-one] | Non-agonist | Non-agonist | – | –
CC(=O)c1cnccn1 [2-acetylpyrazine] | Non-agonist | Non-agonist | – | –
CCC(C)=O [2-butanone] | – | – | Non-agonist | Non-agonist
O=C1Cc2ccccc2O1 [2-coumaranone] | Non-agonist | Non-agonist | – | –
CC(=O)CC(=O)CC(C)C [6-Methyl-2,4-heptanedione] | Agonist | – | – | –
CC(C)=CCC[C@@H](C)CC=O [Citronellal] | – | – | Agonist | –
CCCCCCCCCC(=O)O [Decanoic acid] | Agonist | – | – | –
CCCCCCCS [Heptane-1-thiol] | Agonist | – | – | –
CCCCCCS [Hexane-1-thiol] | – | – | Agonist | –
CCCCCS [Pentane-1-thiol] | Agonist | – | – | –
